Results published in patent publication EP4755886A1 (Chengdu Chipscreen Pharmaceutical Ltd., priority 2023, dated 2025).
Read-outs that look alike come from different tables or passages of the source.

What was measured:
[1] = system: human large cell lung cancer cell line LU99; assay: Efficacy in LU99 xenograft mouse model; type: in vivo, Balb/c nude mice; conditions: 50 mg/kg, PO, qd, 28 days
Description: The human large cell lung cancer cell line LU99 was purchased from Nanjing Cobioer Biosciences Co., Ltd. (CBP61512) and cultured in RPMI-1640 medium (Gibco) containing 10% fetal bovine serum (Gibco); the test substances were prepared into suspensions at concentrations of 0.3 mg/mL, 1 mg/mL, and 5 mg/mL using a 0.5% aqueous MC solution containing 0.2% Tween 80. Reference Example 6 (MRTX1719) was prepared into a 5 mg/mL clear solution using 40% PEG400 normal saline containing 2% DMSO.
LU99 cells in the logarithmic growth phase were digested, collected, and counted, and the cell density was adjusted to 2 × 10^7 cells/mL using a 1:1 serum-free medium and matrigel (Corning). 18-20 g of Balb/c nude mice (Beijing Huafukang Biotechnology Co., Ltd.) were inoculated subcutaneously with 100 µL of cell suspension per mouse. On day 12 after inoculation, animals with a mean tumor volume of 116 mm^3 were randomly grouped, with 7 animals in each group. The test substances were intragastrically administered at 3 mg/kg, 10 mg/kg, and 50 mg/kg once daily, and MRTX1719 was intragastrically administered at 50 mg/kg once daily. A vehicle (2% DMSO + 40% PEG400 + 58% normal saline) was intragastrically administered to the blank group at a dose of 10 mL/kg once daily. Administration was performed for 28 days in total.
After the animals were inoculated with LU99 cells, the tumor volume was measured 2-3 times a week, and the tumor volume was calculated based on length × width^2 × 0.5. On the day when the last administration was completed, except for the mice with tumor regression, which were subjected to discontinuation observation, the remaining mice were euthanized.
In the formula, VTt represents the tumor volume of the treatment group at each measurement, and VT0 represents the tumor volume measured when the treatment group is grouped; VCt represents the tumor volume of the model control group at each measurement, and VC0 represents the tumor volume measured when the model control group is grouped.
Data were analyzed using GraphPad Prism 9.0 software and expressed as Mean ± SEM (standard error). Pairwise comparisons between each administration group and the model control group were performed using one-way analysis of variance (ANOVA). Variance homogeneity was determined using the Brown-Forsythe method, and variance heterogeneity was determined using the Dunnett's T3 method. Table 8. Efficacy evaluation in LU99 xenograft mouse model

[2] = system: gene-editing MTAP-/- human colon cancer cell strain HCT116; assay: Efficacy in MTAP-/- HCT116 subcutaneous xenograft mouse model; type: in vivo, Balb/c nude mice; conditions: 50 mg/kg, PO, qd, 28 days
Description: The blank group contained 40% PEG400 normal saline with 2% DMSO. […] The test substance was intragastrically administered at 10 mg/kg once daily, and MRTX1719 was intragastrically administered at 50 mg/kg once daily. Model control: The vehicle (2% DMSO + 40% PEG400 + 58% normal saline) was intragastrically administered at a dose of 10 mL/kg once daily. Administration was performed for 28 days in total. […] The mice were euthanized on the day when the last administration was completed. […] In the formula, VTt represents the tumor volume of the treatment group at each measurement, and VT0 represents the tumor volume measured when the treatment group is grouped; VCt represents the tumor volume of the vehicle group at each measurement (same as VTt), and VC0 represents the tumor volume measured when the vehicle group is grouped. Data were analyzed using GraphPad Prism 9.0 software and expressed as Mean ± SEM (standard error). Pairwise comparisons between each administration group and the control group were performed using one-way analysis of variance (ANOVA). Variance homogeneity was determined using the Brown-Forsythe method, and variance heterogeneity was determined using the Dunnett's T3 method. Table 7. Efficacy evaluation in HCT116 subcutaneous xenograft mouse model

CYP450 enzyme 3A4 = molecular target: T1, CYP450 enzyme 3A4 (Homo sapiens, UniProt P08684); assay: CYP inhibition test in human liver microsomes; type: in vitro ADME; conditions: human liver microsomes 0.1 mg/mL
T1 construct: Liver microsomes (purchased from BIOIVT, Cat. No.: X008070); tissue BIOIVT X008070; host or cells: human liver microsomes
T1 sequence (P08684 whole entry): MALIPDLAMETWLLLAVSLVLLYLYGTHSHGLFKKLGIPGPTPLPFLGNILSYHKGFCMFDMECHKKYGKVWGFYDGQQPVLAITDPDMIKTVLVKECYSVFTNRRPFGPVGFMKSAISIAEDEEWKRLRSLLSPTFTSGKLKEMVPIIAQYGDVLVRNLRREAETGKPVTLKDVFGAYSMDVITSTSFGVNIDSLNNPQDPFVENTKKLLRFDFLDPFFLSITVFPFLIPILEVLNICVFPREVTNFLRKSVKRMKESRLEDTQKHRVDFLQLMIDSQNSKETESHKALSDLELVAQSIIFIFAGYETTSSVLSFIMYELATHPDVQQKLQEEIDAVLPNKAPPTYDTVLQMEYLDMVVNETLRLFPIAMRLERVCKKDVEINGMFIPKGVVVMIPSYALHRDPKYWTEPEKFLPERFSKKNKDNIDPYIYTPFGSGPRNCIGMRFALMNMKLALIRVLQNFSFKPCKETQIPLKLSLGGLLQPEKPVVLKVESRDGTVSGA
Description: Experimental materials: human liver microsomes (purchased from BIOIVT);
PBS: 0.1 M KH2PO4 and K2HPO4 buffers, pH 7.4.
MgCl2: a certain amount of MgCl2 was weighed out and prepared into a 20 mM MgCl2 solution with PBS.
NADPH (Chinese name: reduced nicotinamide adenine dinucleotide phosphate, purchased from Sigma, Cat. No.: 481973-500 mg): a certain amount of NADPH was weighed out and a 5 mM solution of NADPH was prepared with a 20 mM MgCl2 solution, and the final incubation concentration was 1 mM.
Compounds: 3 mM, 1 mM, 0.3 mM, 0.1 mM, 0.03 mM, 0.01 mM, and 0 mM solutions of the test compounds were prepared with a DMSO-methanol (v:v = 1:9) solution, and the final incubation concentrations were 30 µM, 10 µM, 3 µM, 1 µM, 0.3 µM, 0.1 µM, and 0 µM. 30 µM, 10 µM, 3 µM, 1 µM, 0.3 µM, and 0 µM solutions of the positive compound (ketoconazole) were prepared with a DMSO-methanol (v:v = 1:9) solution, and the final incubation concentrations were 0.3 µM, 0.1 µM, 0.03 µM, 0.01 µM, 0.003 µM, and 0 µM.
Substrate working solutions: 200 µM and 15 µM solutions of substrate working solutions (testosterone and midazolam) were prepared with PBS, separately, and the final incubation concentrations were 40 µM and 3 µM.
Liver microsomes (purchased from BIOIVT, Cat. No.: X008070): the liver microsomes were diluted to […] with PBS, and the final incubation concentration was 0.1 mg/mL.
The prepared test compounds or positive compounds were added to a 96-well plate, and then the prepared human liver microsome working solution and substrate working solution were added. The mixture was mixed well. The mixture was pre-incubated in a thermostat incubator at 37 °C for 5 min, and then the prepared NADPH was added to start the reaction. The mixture was incubated for 5 min or 10 min. After the incubation was completed, a pre-cooled acetonitrile solution containing an internal standard was added to terminate the reaction. After protein precipitation, the mixture was vortexed for 5 min with shaking and then centrifuged at 4000 rpm for 10 min. The supernatant was collected and added to the 96-well plate. The content (peak concentration ratio) of the metabolites of the substrate was determined by an LC-MS/MS method. The residual activity and the half maximal inhibitory concentration (IC50) of the enzyme were calculated based on the detected content.
Percentage of remaining enzyme activity: The activity of each subtype of CYP450 enzyme was expressed as the amount of metabolite produced, and the percentage of remaining enzyme activity was calculated as follows: [formula]
The concentrations of the test substances and the corresponding residual activity percentages were fitted using a nonlinear model of Excel software, and the concentration of the test substances at which 50% inhibition of metabolite production was achieved was the IC50 value.

PK experiment in mice = conditions: mouse, plasma, po, 10 mg/kg
Description: Experimental materials: the experimental animals were healthy adult female BALB/c mice (provided by Sichuan Vital River Laboratory Animal Technology Co., Ltd.).
Administration mode and sample collection in mice: BALB/c female mice received oral intragastrical administration (10 mg/kg, vehicle: 0.5% methylcellulose/0.2% Tween 80), and 60 µL of whole blood from the venous plexus of the fundus of the mice at different time points was collected at 0.25 h, 0.5 h, 1 h, 2 h, 4 h, 6 h, 8 h, and 24 h after administration and centrifuged at 4000 rpm for 6 min to collect plasma.
10 µL of mouse plasma sample was added to 190 µL of acetonitrile solution containing an internal standard to precipitate protein. The mixture was vortexed for 10 min and centrifuged at 4000 rpm for 10 min. The supernatant was collected and added to a 96-well plate. The samples were analyzed by LC-MS/MS. The drug concentrations in the plasma of mice at different time points after intragastric administration of the example compounds were measured by an LC-MS/MS method, and the related pharmacokinetic parameters were calculated, such that the pharmacokinetic behavior of the compounds in the mice was studied, and the pharmacokinetic characteristics were evaluated.

PK experiment in rats = type: in vivo; conditions: rat; SD male rats, PO 10 mg/kg, vehicle 0.5% MC/0.2% Tween 80, plasma
Description: The samples were analyzed by LC-MS/MS. […] Table 6. Pharmacokinetic parameters for rats

hERG = molecular target: T2, hERG (Homo sapiens, UniProt Q12809); assay: hERG test (Predictor hERG Fluorescence Polarization Assay Kit); type: binding
T2 construct: purchased ThermoFisher Scientific PV5365
T2 sequence (Q12809 whole entry): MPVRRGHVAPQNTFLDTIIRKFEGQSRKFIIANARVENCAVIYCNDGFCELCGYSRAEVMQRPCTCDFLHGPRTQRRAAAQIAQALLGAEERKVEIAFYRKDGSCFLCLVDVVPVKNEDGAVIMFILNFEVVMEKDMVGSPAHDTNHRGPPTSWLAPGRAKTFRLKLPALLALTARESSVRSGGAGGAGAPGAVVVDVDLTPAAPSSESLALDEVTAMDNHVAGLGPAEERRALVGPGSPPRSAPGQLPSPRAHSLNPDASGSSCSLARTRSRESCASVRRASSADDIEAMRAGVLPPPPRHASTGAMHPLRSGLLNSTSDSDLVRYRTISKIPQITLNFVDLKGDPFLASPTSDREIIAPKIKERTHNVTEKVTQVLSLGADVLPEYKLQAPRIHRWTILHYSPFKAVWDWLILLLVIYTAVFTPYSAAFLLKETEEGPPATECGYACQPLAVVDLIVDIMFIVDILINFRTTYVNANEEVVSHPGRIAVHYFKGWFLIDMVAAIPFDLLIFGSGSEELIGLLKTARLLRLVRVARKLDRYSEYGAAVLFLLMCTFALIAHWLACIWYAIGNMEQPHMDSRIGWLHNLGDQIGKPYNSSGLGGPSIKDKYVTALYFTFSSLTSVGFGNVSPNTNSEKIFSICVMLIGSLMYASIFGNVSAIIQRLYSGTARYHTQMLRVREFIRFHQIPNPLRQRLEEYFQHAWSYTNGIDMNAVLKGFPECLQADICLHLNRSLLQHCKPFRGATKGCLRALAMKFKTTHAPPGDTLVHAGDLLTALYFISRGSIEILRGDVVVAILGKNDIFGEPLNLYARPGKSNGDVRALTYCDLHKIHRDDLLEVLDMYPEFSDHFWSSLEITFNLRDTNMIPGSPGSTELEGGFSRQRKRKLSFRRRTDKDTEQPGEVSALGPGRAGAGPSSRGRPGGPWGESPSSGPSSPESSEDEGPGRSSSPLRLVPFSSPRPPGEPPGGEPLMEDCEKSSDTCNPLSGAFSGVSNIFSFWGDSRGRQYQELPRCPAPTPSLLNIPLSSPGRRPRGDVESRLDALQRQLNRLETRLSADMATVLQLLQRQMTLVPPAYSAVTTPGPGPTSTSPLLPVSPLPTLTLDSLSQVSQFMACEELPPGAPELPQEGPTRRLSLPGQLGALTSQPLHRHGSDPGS
Description: Predictor™ hERG Fluorescence Polarization Assay Kit (ThermoFisher Scientific, PV5365).
The procedures in the kit instructions were followed: 4× Predictor™ hERG Tracer Red, 4× E-4031, and 4× test substance solutions (final assay concentration: 10 µM) were prepared in advance. 5 µL Predictor™ hERG FP Assay Buffer and 5 µL Predictor™ hERG Membrane were added sequentially to the Assay Blank group in a 384-well plate. 2.5 µL Predictor™ hERG FP Assay Buffer, 2.5 µL of 4× E-4031, and 2.5 µL of 4× test substance were added to the negative control group, the positive control group, and the test substance group, respectively, and then 5 µL Predictor™ hERG Membrane and 2.5 µL of 4× Predictor™ hERG Tracer Red were sequentially added. The total volume of the experimental system was 10 µL, and three duplicate wells were set for each group. After loading, the plate was gently tapped to mix well and incubated at room temperature (25 °C) in the dark for 3.5 h. After the incubation was completed, the fluorescence polarization value mP was measured on a microplate reader, and G Factor was 2.14.
The inhibition rate of the test substance was calculated using the following formula: [formula]

For `Cn1ncc(-c2ccc3c(=O)[nH]nc(CN)c3c2)c1-c1c(F)c(Cl)cc(OC2CC2)c1C#N` (atropisomer, axis not shown) [Reference Example 6, reference compound], the TGI [1] was 90.96%, the Tumor volume [1] was 279.68 mm^3 and the TGI [2] was 72.21%. The Tumor volume [2] was 525.74 mm^3, the IC50 (CYP450 enzyme 3A4; substrate midazolam 3 µM, read-out: IC50 3A4-Midazolam) was 2130 nM and the IC50 (CYP450 enzyme 3A4; substrate testosterone 40 µM, read-out: IC50 3A4-Testosterone) was 1950 nM. The AUC(0-t) (PK experiment in mice) was 1970 ± 316 ng·h/mL, the Cmax (PK experiment in mice) was 428 ± 220 ng/mL and the AUC(0-t) (PK experiment in rats) was 100 ± 103 ng·h/mL. The Cmax (PK experiment in rats) was 107 ± 149 ng/mL, the inhibition at 3.5 h, 10 µM (hERG; herg membrane fluorescence polarization, 10 µM test substance, three duplicate wells) was 77.4% and the IC50 (hERG; only 10 µM tested) was less than 10000 nM.
